SMILES strings stand for the structures. pIC50: −log10 of the molar value.

One compound from patent US20260242390A1, “TOTAL SYNTHESES OF PORTIMINE A AND ANALOGUES THEREOF AS SMALL MOLECULE MODULATORS OF NMD3” (priority 2023, published 2026) can be followed below.

The subject of one test is 786-O. Description: Broad cell line profiling, 786-O. The format is cell-based. The following applies: Homo sapiens, 786-0, Renal Adenocarcinoma, read-out: PA IC50. The source says: (§1) • A panel of human and mouse cancer cell types used to assess the breadth of PA activity, including multiple therapy resistant metastatic mesenchymal tumor cell lines and primary glioblastoma patient-derived metastatic stem/tumor initiating cell populations.

Another test relates to MCF-7. Description: Broad cell line profiling, MCF-7. The following applies: Homo sapiens, MCF7; MCF-7, Breast Adenocarcinoma; read-out: PA IC50. Type of test: cell-based.
Excerpt: as §1

The subject of a further test is HepG2. The test is described as follows: Broad cell line profiling, HepG2. Particulars: Homo sapiens; HepG2, Hepatocellular Carcinoma; read-out: PA IC50. Type of test: cell-based.
Excerpt: as §1

Another test relates to GBM-F. The test is described as follows: Broad cell line profiling, GBM-F. The format is cell-based. Particulars: Homo sapiens, Glioblastoma Cancer Stem Cell, read-out: PA IC50.
Excerpt: as §1

The test system of another test is Bcl-xl. The test is described as follows: Bcl-xl protein level in cells. Type of test: cell-based, human. As for the experimental part: FIG. 6. Portimine A inhibits S phase entry in Jurkat cells. Portimine A downregulates NMD3 at protein level but upregulates in mRNA level in cells, as well as some essential apoptosis proteins. […] Protein degradation of p53, Mcl1, Bid, Bim, Noxa can be rescued by MG132 or Epoxomicin. (B) NMD3 mRNA increased after PA treatment, but not ePA control compound. Jurkat cells were treated with indicated compounds for 24 hr; Cells were then fixed and perform Propidium Iodide staining.
• 1) Portimine A and its functional analogs show stereo-selective acute toxicity in cancer cells (FIG. 1). […] (B) Structure of portimine related analogs: phenyl-portimine A (Ph-PA, 36) and epi-portimine A (ePA, 38). Structure of fully functionalized portimine A-based epimeric probe pair: portimine A-diazirine-alkyne (PA-DA, 35-2) and epi-portimine A-diazirine-alkyne (ePA-DA, 35-1). (C) Cell viability analysis of portimine A and analogs. Jurkat cells were treated with increasing concentrations of portimine A and analogs for 24 hours. All presented data as mean of biological replicated experiments (n=3). […] Jurkat cells were treated with portimine A or analogs for 12 hours at 10 nM. […] Cell lysates were fractionated by sucrose gradient (5-50%) and each fraction were analyzed by western blot. eIF6 levels increase in 60S subunit fraction and decrease in ribosome-free fractions after PA treatment. […]

Take `C=CC1=C[C@@H]2[C@@H]3O[C@]4(CC[C@H](O4)C(C)C[C@@H](O)C3=O)CC(O)C3=NCC[C@@]32CC1` (some centres unmarked) [PA, portimine A]: the pIC50 is 8.74 in the test with 786-O, 9.11 in the test on MCF-7, 8.32 in the test with HepG2 and 8.59 in the test with GBM-F. For the same compound, the “Bcl-xl protein level after treatment” value in the test on Bcl-xl is “downregulated”.
